Results published in patent US20250121076A1, “POLYPEPTIDE DRUG CONJUGATE HAVING NOVEL STRUCTURE AND APPLICATION THEREOF” (MEDSHINE DISCOVERY INC., priority 2021, published 2025).
pKd: −log10 of the molar value. Where a name gives a salt, the structure may show the parent alone. Read-outs that look alike come from different tables or passages of the source. Starred links: 1 amine or outer side, 2 acyl side, 3 side chain; linkers in the order of their positions; H or OH if unused. Positions of bridges follow the written chain, without caps; N, C: chain ends. Non-standard residues stand in square brackets, D forms with d. Residues, ends and D or L forms follow the SMILES beside them. Chains are numbered I, II in the order given. *: point of attachment. TATA = O=C(CC[*:1])N1CN(C(=O)CC[*:2])CN(C(=O)CC[*:3])C1; Dolaproine = CO[C@@H]([C@@H]1CCCN1)[C@@H](C)C(=O)O; Dil = CC[C@H](C)[C@H](NC)[C@@H](CC(=O)O)OC; X2 = O=C(CCCC(=O)[*:2])NCCC(=O)[*:1]; PABC = O=C(OCc1ccc(N[*:1])cc1)[*:2]; X1 = C[C@@H](N*)[C@@H](O)c1ccccc1; Hyp = O=C(O)[C@@H]1C[C@@H](O)CN1; hArg = N=C(N)NCCCC[C@H](N)C(=O)O; Cit = NC(=O)NCCC[C@H](N)C(=O)O; Pen = CC(C)(S)[C@H](N)C(=O)O; NMeV = CN[C@H](C(=O)O)C(C)C; hCys = N[C@@H](CCS)C(=O)O; Sar = CNCC(=O)O

Molecular target: T1, Human EphA2 (Homo sapiens, UniProt P29317)
T1 construct: purchased Sino Biological 13926-H08HD
T1 sequence (P29317 24-534 limits assumed): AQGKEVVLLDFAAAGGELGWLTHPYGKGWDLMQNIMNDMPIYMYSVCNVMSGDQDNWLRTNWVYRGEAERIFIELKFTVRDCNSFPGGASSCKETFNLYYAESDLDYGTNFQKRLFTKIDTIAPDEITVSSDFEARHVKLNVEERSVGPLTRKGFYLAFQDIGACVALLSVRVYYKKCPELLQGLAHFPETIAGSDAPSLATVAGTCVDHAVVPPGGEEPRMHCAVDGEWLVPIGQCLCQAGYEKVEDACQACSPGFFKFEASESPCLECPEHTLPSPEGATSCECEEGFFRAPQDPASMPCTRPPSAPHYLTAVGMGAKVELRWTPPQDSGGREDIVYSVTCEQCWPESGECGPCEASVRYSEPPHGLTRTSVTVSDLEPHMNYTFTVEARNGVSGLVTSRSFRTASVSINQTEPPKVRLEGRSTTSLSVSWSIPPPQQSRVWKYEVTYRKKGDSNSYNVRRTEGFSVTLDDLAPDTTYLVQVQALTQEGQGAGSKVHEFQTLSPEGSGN
Assay: Binding capacity test to EphA2 protein (SPR, Biacore 8K)
Procedure: To detect the affinity of the compound to be tested to the target protein EphA2 using the SPR method.
• Biacore 8K (GE Healthcare). • 96-well Plate (Cat #650101, greiner bio-one) • CM5 chip (Cat #BR-1005-30, GE Healthcare) • Amine Coupling Kit (Cat #BR-1000-50, GE Healthcare) EDC NHS 1 M ethanolamine. • 10 mM sodium acetate pH 4.5 (Cat #BR-1003-50, GE Healthcare) • DMSO (Cat #D4540, Sigma) • P20 (Cat #BR-1000-54, GE Healthcare). • PBS (Cat #BR-1006-72, GE Healthcare). • EphA2 (Cat #13926-H08HD, Sino Biological)
In this experiment, the amino coupling method was used. The target protein EphA2 was directly immobilized on the CM5 chip using Biacore 8K. The compound to be tested as an analyte was then diluted to a required concentration gradient with a buffer (10 mM PBS, pH 7.4, 137 mM NaCl, 2.7 mM KCl, 5% DMSO, and 0.05% P20) for multi-cycle kinetic detection, in which each cycle is formed by 180 seconds of sample injection and 180 seconds of dissociation, and then the next cycle was performed, to obtain kinetic analysis data on the affinity of the target protein EphA2 to the compound to be tested. The final data were subjected to Kinetics fitting analysis based on a 1:1 model using Biacore Insight Evaluation Software (V 2.0.15.12933).
1) Preparation of the buffer: 10 mM PBS, pH 7.4, 137 mM NaCl, 2.7 mM KCl, 5% DMSO, and 0.05% P20.
2) Activation of the CM5 chip: The CM5 chip was activated with 400 mM EDC and 100 mM NHS at a flow rate of 10 μL/min for 420 seconds.
3) Coupling of the target protein: The target protein was diluted to 10 μg/mL with 10 mM sodium acetate (pH 4.5) and coupled at a flow rate of 10 μL/min for 284 s. The 1 #, 2 #, and 3 #channels on the chip were used in the experiment, and the coupling results were 1639.9RU, 1747.8RU, and 1702.2RU, respectively.
4) Blocking of the CM5 chip: The CM5 chip was blocked with 1 M ethanolamine at a flow rate of 10 μL/min for 420 seconds.
5) Analyte concentration: The compound to be tested was diluted with the buffer. The compound to be tested was diluted from 100 nM to 0.78 nM in a 2-fold gradient.
6) Sample injection analysis: Each concentration of the working solution of the compound to be tested corresponded to one cycle, with a flow rate of 30 μL/min for binding for 180 seconds and dissociating for 180 seconds. The last cycle was a 5% DMSO solvent correction cycle. 7) All results were subjected to kinetics fitting analysis based on a 1:1 model.
The experimental data of five effective concentrations of the compounds of the present invention were selected for Kinetics fitting analysis based on a 1:1 model using Biacore Insight Evaluation Software (V 2.0.15.12933).

Row | Structure (SMILES) | pKd (read-out: Human EphA2 SPR kD, SPR, kinetics fit 1:1 model) | pKd
1 | CC[C@H](C)[C@@H]([C@@H](CC(=O)N1CCC[C@H]1[C@H](OC)[C@@H](C)C(=O)N[C@H](C)[C@@H](O)c1ccccc1)OC)N(C)C(=O)[C@@H](NC(=O)[C@H](C(C)C)N(C)C(=O)OCc1ccc(NC(=O)[C@H](CCCNC(N)=O)NC(=O)[C@@H](NC(=O)CCCC(=O)NCCC(=O)N(C)CC(=O)N(C)CC(=O)N(C)CC(=O)N(C)CC(=O)N(C)CC(=O)N(C)CC(=O)N(C)CC(=O)N(C)CC(=O)N(C)CC(=O)N(C)CC(=O)N[C@@H](C)C(=O)N[C@@H](CCCCNC(=N)N)C(=O)N[C@@H](CC(=O)O)C(=O)N[C@H]2CCSCCC(=O)N3CN4CN(C3)C(=O)CCSC[C@H](NC(=O)[C@H](CC(C)C)NC(=O)[C@@H]3CCCN3C(=O)[C@H](CC(N)=O)NC(=O)[C@H](C(C)C)NC(=O)[C@H](CC(C)C)NC(=O)[C@@H]3C[C@@H](O)CN3C2=O)C(=O)N[C@@H](CC(C)C)C(=O)N[C@@H](Cc2c[nH]cn2)C(=O)N2CCC[C@H]2C(=O)N[C@H](CC(=O)O)C(=O)N[C@@H](Cc2c[nH]c3ccccc23)C(=O)N[C@@H](CCCCNC(=N)N)C(=O)N[C@H](C(N)=O)CSCCC4=O)C(C)C)cc1)C(C)C [Acetate salt of PDC_2, MMAE-PABC-Cit-Val-Glutaryl-β-Ala-Sar10-Ala-hArg-Asp-hCys-Hyp-Leu-Val-Asn-Pro-Leu-Cys-Leu-His-Pro-dAsp-Trp-hArg-Cys-NH2, TATA] (I: [Sar][Sar][Sar][Sar][Sar][Sar][Sar][Sar][Sar][Sar]A[hArg]D[hCys][Hyp]LVNPLCLHP[dD]W[hArg]C-NH2 / II: V[Cit][PABC][NMeV]V[Dil][Dolaproine]-X1; linker I:14-I:21-I:28 via TATA; linker I:N-II:N via X2) | 7.48 | 
2 | CC[C@H](C)[C@@H]([C@@H](CC(=O)N1CCC[C@H]1[C@H](OC)[C@@H](C)C(=O)N[C@H](C)[C@@H](O)c1ccccc1)OC)N(C)C(=O)[C@@H](NC(=O)[C@H](C(C)C)N(C)C(=O)OCc1ccc(NC(=O)[C@H](CCCNC(N)=O)NC(=O)[C@@H](NC(=O)CCCC(=O)NCCC(=O)N(C)CC(=O)N(C)CC(=O)N(C)CC(=O)N(C)CC(=O)N(C)CC(=O)N(C)CC(=O)N(C)CC(=O)N(C)CC(=O)N(C)CC(=O)N(C)CC(=O)N[C@H]2CCCCNC(=O)C[C@@H](C(=O)N[C@@H]3C(=O)N4C[C@H](O)C[C@H]4C(=O)N[C@@H](CC(C)C)C(=O)N[C@@H](C(C)C)C(=O)N[C@@H](CC(N)=O)C(=O)N4CCC[C@H]4C(=O)N[C@@H](CC(C)C)C(=O)N[C@H]4CSCCC(=O)N5CN(CN(C5)C(=O)CCSC3(C)C)C(=O)CCSC[C@@H](C(N)=O)NC(=O)[C@H](CCCCNC(=N)N)NC(=O)[C@H](Cc3c[nH]c5ccccc35)NC(=O)[C@@H](CC(=O)O)NC(=O)[C@@H]3CCCN3C(=O)[C@H](Cc3c[nH]cn3)NC(=O)[C@H](CC(C)C)NC4=O)NC(=O)[C@H](CCCCNC(=N)N)NC2=O)C(C)C)cc1)C(C)C [Acetate salt of PDC_7] (I: [Sar][Sar][Sar][Sar][Sar][Sar][Sar][Sar][Sar][Sar]K[hArg]D[Pen][Hyp]LVNPLCLHP[dD]W[hArg]C-NH2 / II: V[Cit][PABC][NMeV]V[Dil][Dolaproine]-X1; lactam I:11-I:13; linker I:14-I:21-I:28 via TATA; linker I:N-II:N via X2) |  | 8.08
3 | CC[C@H](C)[C@@H]([C@@H](CC(=O)N1CCC[C@H]1[C@H](OC)[C@@H](C)C(=O)N[C@H](C)[C@@H](O)c1ccccc1)OC)N(C)C(=O)[C@@H](NC(=O)[C@H](C(C)C)N(C)C(=O)OCc1ccc(NC(=O)[C@H](CCCNC(N)=O)NC(=O)[C@@H](NC(=O)CCCC(=O)NCCC(=O)N(C)CC(=O)N(C)CC(=O)N(C)CC(=O)N(C)CC(=O)N(C)CC(=O)N(C)CC(=O)N(C)CC(=O)N(C)CC(=O)N(C)CC(=O)N(C)CC(=O)N[C@H]2CCCCNC(=O)C[C@@H](C(=O)N[C@H]3CSCCC(=O)N4CN5CN(C4)C(=O)CCSC[C@H](NC(=O)[C@H](CC(C)C)NC(=O)[C@@H]4CCCN4C(=O)[C@H](CC(N)=O)NC(=O)[C@H](C(C)C)NC(=O)[C@H](CC(C)C)NC(=O)[C@@H]4C[C@@H](O)CN4C3=O)C(=O)N[C@@H](CC(C)C)C(=O)N[C@@H](Cc3c[nH]cn3)C(=O)N3CCC[C@H]3C(=O)N[C@H](CC(=O)O)C(=O)N[C@@H](Cc3c[nH]c4ccccc34)C(=O)N[C@@H](CCCCNC(=N)N)C(=O)N[C@H](C(N)=O)CCSCCC5=O)NC(=O)[C@H](CCCCNC(=N)N)NC2=O)C(C)C)cc1)C(C)C [Acetate salt of PDC_5] (I: [Sar][Sar][Sar][Sar][Sar][Sar][Sar][Sar][Sar][Sar]K[hArg]DC[Hyp]LVNPLCLHP[dD]W[hArg][hCys]-NH2 / II: V[Cit][PABC][NMeV]V[Dil][Dolaproine]-X1; lactam I:11-I:13; linker I:14-I:21-I:28 via TATA; linker I:N-II:N via X2) |  | 8.17
4 | CC[C@H](C)[C@@H]([C@@H](CC(=O)N1CCC[C@H]1[C@H](OC)[C@@H](C)C(=O)N[C@H](C)[C@@H](O)c1ccccc1)OC)N(C)C(=O)[C@@H](NC(=O)[C@H](C(C)C)N(C)C(=O)OCc1ccc(NC(=O)[C@H](CCCNC(N)=O)NC(=O)[C@@H](NC(=O)CCCC(=O)NCCC(=O)N(C)CC(=O)N(C)CC(=O)N(C)CC(=O)N(C)CC(=O)N(C)CC(=O)N(C)CC(=O)N(C)CC(=O)N(C)CC(=O)N(C)CC(=O)N(C)CC(=O)N[C@H]2CCCCNC(=O)C[C@@H](C(=O)N[C@H]3CSCCC(=O)N4CN5CN(C4)C(=O)CCSC[C@H](NC(=O)[C@H](CC(C)C)NC(=O)[C@@H]4CCCN4C(=O)[C@H](CC(N)=O)NC(=O)[C@H](C(C)C)NC(=O)[C@H](CC(C)C)NC(=O)[C@@H]4C[C@@H](O)CN4C3=O)C(=O)N[C@@H](CC(C)C)C(=O)N[C@@H](Cc3c[nH]cn3)C(=O)N3CCC[C@H]3C(=O)N[C@H](CC(=O)O)C(=O)N[C@@H](Cc3c[nH]c4ccccc34)C(=O)N[C@@H](CCCCNC(=N)N)C(=O)N[C@H](C(N)=O)CSCCC5=O)NC(=O)[C@H](CCCCNC(=N)N)NC2=O)C(C)C)cc1)C(C)C [Acetate salt of PDC_4] (I: [Sar][Sar][Sar][Sar][Sar][Sar][Sar][Sar][Sar][Sar]K[hArg]DC[Hyp]LVNPLCLHP[dD]W[hArg]C-NH2 / II: V[Cit][PABC][NMeV]V[Dil][Dolaproine]-X1; lactam I:11-I:13; linker I:14-I:21-I:28 via TATA; linker I:N-II:N via X2) |  | 7.88
5 | CC[C@H](C)[C@@H]([C@@H](CC(=O)N1CCC[C@H]1[C@H](OC)[C@@H](C)C(=O)N[C@H](C)[C@@H](O)c1ccccc1)OC)N(C)C(=O)[C@@H](NC(=O)[C@H](C(C)C)N(C)C(=O)OCc1ccc(NC(=O)[C@H](CCCNC(N)=O)NC(=O)[C@@H](NC(=O)CCCC(=O)NCCC(=O)N(C)CC(=O)N(C)CC(=O)N(C)CC(=O)N(C)CC(=O)N(C)CC(=O)N(C)CC(=O)N(C)CC(=O)N(C)CC(=O)N(C)CC(=O)N(C)CC(=O)N[C@H]2CCCCNC(=O)C[C@@H](C(=O)N[C@H]3CCSCCC(=O)N4CN5CN(C4)C(=O)CCSC[C@H](NC(=O)[C@H](CC(C)C)NC(=O)[C@@H]4CCCN4C(=O)[C@H](CC(N)=O)NC(=O)[C@H](C(C)C)NC(=O)[C@H](CC(C)C)NC(=O)[C@@H]4C[C@@H](O)CN4C3=O)C(=O)N[C@@H](CC(C)C)C(=O)N[C@@H](Cc3c[nH]cn3)C(=O)N3CCC[C@H]3C(=O)N[C@H](CC(=O)O)C(=O)N[C@@H](Cc3c[nH]c4ccccc34)C(=O)N[C@@H](CCCCNC(=N)N)C(=O)N[C@H](C(N)=O)CSCCC5=O)NC(=O)[C@H](CCCCNC(=N)N)NC2=O)C(C)C)cc1)C(C)C [Acetate salt of PDC_6] (I: [Sar][Sar][Sar][Sar][Sar][Sar][Sar][Sar][Sar][Sar]K[hArg]D[hCys][Hyp]LVNPLCLHP[dD]W[hArg]C-NH2 / II: V[Cit][PABC][NMeV]V[Dil][Dolaproine]-X1; lactam I:11-I:13; linker I:14-I:21-I:28 via TATA; linker I:N-II:N via X2) |  | 8.25
